Test results reported in US8404848B2, “Derivatives of imidazo[1,2-a]pyridine-2-carboxamides, preparation method thereof and use of same in therapeutics” (Sanofi, priority 2006, dated 2013).
pEC50: −log10 of the molar value.

Experiments:
[1] = target: T1, mouse Nurr1 receptor (Mus musculus, UniProt Q06219); test: In vitro activity on N2A cells (NBRE-luciferase reporter); type: cell-based; conditions: N2A cell line endogenously expressing mouse Nurr1, stably transfected with 8NBRE-luciferase; 24 hours incubation
T1 construct: On a cell line (N2A) endogenously expressing the mouse Nurr1 receptor; host or cells: Neuro-2A (N2A) mouse neuroblastoma cells stably transfected with 8NBRE-luciferase
T1 sequence (Q06219 whole entry): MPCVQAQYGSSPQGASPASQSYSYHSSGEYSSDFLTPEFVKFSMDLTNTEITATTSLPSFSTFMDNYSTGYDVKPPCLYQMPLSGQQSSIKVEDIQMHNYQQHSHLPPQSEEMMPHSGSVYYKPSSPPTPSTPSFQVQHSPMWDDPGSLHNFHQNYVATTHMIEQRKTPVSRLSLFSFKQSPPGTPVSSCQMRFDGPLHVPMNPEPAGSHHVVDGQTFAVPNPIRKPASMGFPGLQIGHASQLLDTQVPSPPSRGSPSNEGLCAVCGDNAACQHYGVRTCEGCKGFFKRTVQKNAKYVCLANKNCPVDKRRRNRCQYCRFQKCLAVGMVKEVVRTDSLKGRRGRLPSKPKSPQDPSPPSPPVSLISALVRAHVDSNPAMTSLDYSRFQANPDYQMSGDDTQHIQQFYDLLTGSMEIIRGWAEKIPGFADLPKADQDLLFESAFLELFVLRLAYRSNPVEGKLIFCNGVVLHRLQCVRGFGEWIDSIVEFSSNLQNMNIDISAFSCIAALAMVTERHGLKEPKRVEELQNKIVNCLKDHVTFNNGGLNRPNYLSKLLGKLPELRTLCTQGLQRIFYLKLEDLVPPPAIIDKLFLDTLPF
Description: Evaluation of the In Vitro Activity on N2A Cells
On a cell line (N2A) endogenously expressing the mouse Nurr1 receptor and stably transfected with the NOT binding response element (NBRE) coupled to the luciferase reporter gene. The EC50 values are between 0.01 and 1000 nM. The assays were carried out according to the procedure described below.
The Neuro-2A cell line comes from a standard commercial source (ATCC). The Neuro-2A clone was obtained, from a spontaneous tumor originating from an A albino mouse strain, by R. J Klebe et al. This Neuro-2A line is subsequently stably transfected with 8NBRE-luciferase. The N2A-8NBRE cells are cultured until confluence in 75 cm^2 culture flasks containing DMEM supplemented with 10% of fetal calf serum, 4.5 g/l of glucose and 0.4 mg/ml of geneticin. After a week of culture, the cells are recovered with 0.25% trypsin for 30 seconds and then resuspended in DMEM without phenol red, containing 4.5 g/l of glucose and 10% of Hyclone delipidized serum, and deposited into transparent-bottom 96-well white plates. The cells are deposited at a rate of 60 000 per well in 75 μl for 24 hours before the addition of the products. The products are applied in 25 μl and incubated for a further 24 hours. On the day of the measurement, an equivalent volume (100 μl) of Steadylite is added to each well and then left for a period of 30 minutes in order to obtain complete cell lysis and maximum signal production. The plates are subsequently measured in a luminescence counter for microplates after having been sealed with an adhesive film. The products are prepared in the form of a stock solution at 10^−2M and then diluted in 100% of DMSO. Each product concentration is prediluted in culture medium before incubation with the cells, thus containing 0.625% final concentration of DMSO.

[2] = system: human NOT receptor; test: Binding to the human NOT receptor by SPR (surface plasmon resonance); conditions: Biacore S51, immobilized GST-NOT whole protein and NOT ligand-binding domain, 3.75 to 0.1 μM, 4° C.
Description: Evaluation of the Binding to the Human NOT Receptor
The direct binding between compounds of the invention and the human NOT receptor was evaluated using SPR (surface plasmon resonance) technology. In this assay, the protein is immobilized covalently at the matrix and the molecule to be studied is injected into the chamber comprising the sensor chip. The signal is directly proportional to the amount of product bound to the protein. The binding assays were carried out in a Biacore S51 instrument (Biacore Inc., Piscataway, N.J.). The GST-NOT (NOT-FL) whole protein was provided by Invitrogen (PV3265). The NOT ligand-binding domain (His-Thr-NOT 329-598) was expressed and purified as described in Nature, 423, 555-560. The two proteins, diluted to a concentration of 20 μg/ml in an acetate buffer, pH 5.0, containing 5 mM of DTT, were immobilized on a carboxymethyl 5′ dextran surface (CM5 sensor chip, Biacore Inc.) by amine coupling according to the protocol recommended by Biacore, elution being carried out with an HBS-N buffer (10 mM HEPES, 0.15 M NaCl, […], pH 7.4). Approximately 10 000-15 000 resonance units (RU) of the proteins are captured on the surface of the CM5 sensor chip. […] The dissociation was recorded for 5 minutes without any other procedure for regenerating the surface. […]

| SMILES | pEC50 [1] | affinity (direct binding, classified by maximum binding level and kinetic parameters) [2] |
| --- | --- | --- |
| CC(C)(O)c1ccc2nc(C(=O)Nc3ccccc3)cn2c1 [Compound 4, 6-(1-Hydroxy-1-methylethyl)-N-phenylimidazo[1,2-a]pyridine-2-carboxamide] | 9.18 |  |
| O=C(Nc1ccccc1)c1cn2cc(-c3ccccc3)ccc2n1 [Compound 7, N,6-Diphenylimidazo[1,2-a]pyridine-2-carboxamide] | 9.05 | moderate |
| Cc1ccc2nc(C(=O)Nc3ccccc3)cn2c1 [Compound 19, 6-Methyl-N-phenylimidazo[1,2-a]pyridine-2-carboxamide] | 9.22 | low |
| Cc1ccc2nc(C(=O)Nc3ccccc3)cn2c1C [Compound 43, 5,6-Dimethyl-N-phenylimidazo[1,2-a]pyridine-2-carboxamide] | 9.52 |  |

The remaining compounds from weak to strong by pEC50 [1], led by results:

| pEC50 [1] | affinity (direct binding, classified by maximum binding level and kinetic parameters) [2] | SMILES |
| --- | --- | --- |
| 8.89 |  | COc1ccc2nc(C(=O)Nc3ccccc3)cn2c1 [Compound 29, 6-Methoxy-N-phenylimidazo[1,2-a]pyridine-2-carboxamide] |
| 8.89 |  | CN(C)c1ccc2nc(C(=O)Nc3cc(F)ccc3F)cn2c1 [Compound 58, N-(2,5-Difluorophenyl)-6-(dimethylamino)imidazo[1,2-a]pyridine-2-carboxamide] |
| 9.15 |  | O=C(Nc1ccccc1F)c1cn2cc(-c3cccc(CO)c3)ccc2n1 [Compound 67, N-(2-Fluorophenyl)-6-[3-(hydroxymethyl)phenyl]imidazo[1,2-a]pyridine-2-carboxamide] |
| 9.80 |  | O=C(Nc1ccccc1)c1cn2cc(N3CCC3)ccc2n1 [Compound 70, 6-(Azetidin-1-yl)-N-phenylimidazo[1,2-a]pyridine-2-carboxamide] |
| 10.22 |  | C=C(C)c1ccc2nc(C(=O)Nc3ccccc3)cn2c1 [Compound 32, 6-Isopropenyl-N-phenylimidazo[1,2-a]pyridine-2-carboxamide] |
